Molecular target: recombinant human PAI-1 (Homo sapiens, UniProt P05121)
Assay: biochemical
Conditions: read-out: Inhibition Rate of PAI-1 Activity (%)
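Also: PAI-1 preincubated with compound, then two-chain tPA added, residual tPA activity read with fluorogenic Pyr-Gly-Arg-MCA substrate after 30 min at room temperature.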

Sequence of recombinant human PAI-1 (P05121 24-402): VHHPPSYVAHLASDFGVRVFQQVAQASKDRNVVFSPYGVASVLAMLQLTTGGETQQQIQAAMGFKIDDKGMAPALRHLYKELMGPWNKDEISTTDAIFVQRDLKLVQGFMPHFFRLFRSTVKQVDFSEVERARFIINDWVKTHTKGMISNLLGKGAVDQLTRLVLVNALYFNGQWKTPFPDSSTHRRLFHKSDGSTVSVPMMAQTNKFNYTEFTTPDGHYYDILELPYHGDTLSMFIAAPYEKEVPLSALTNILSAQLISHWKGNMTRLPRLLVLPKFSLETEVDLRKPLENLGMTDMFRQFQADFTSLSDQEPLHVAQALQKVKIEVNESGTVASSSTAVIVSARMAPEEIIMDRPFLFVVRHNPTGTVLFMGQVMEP
Procedure: To this solution, 6 µl of 80 nM recombinant human PAI-1 (Molecular Innovations, Inc.) solution prepared with Tris buffer was added, and the plate was incubated for 5 minutes at room temperature. Furthermore, 30 µl of 800 IU/ml two-chain tPA (Activity Standard; American diagnostica, inc.) prepared with Tris buffer was added, and the mixed solution was incubated for 15 minutes at room temperature. Then, 30 µl of 400 µM fluorogenic substrate (Pyr-Gly-Arg-MCA; Peptide Institute, Inc.) for tPA prepared with Tris buffer was added and reacted for 30 minutes at room temperature.
50 mM Tris, 150 mM NaCl, 10 µg/ml BSA, 0.01 % Tween80 (SIGMA-ALDRICH Corporation)

Row | Compound | inhibition at 5 µM | inhibition at 10 µM | inhibition at 25 µM
1 | Cc1cc(C)cc(CN(C(=O)C(=O)O)c2ccc(-c3ccc(OC(F)(F)F)cc3)cc2)c1 [Compound 123] | 27% | 62% | –
2 | O=C(O)C(=O)N(Cc1ccc(Cl)cc1)c1ccc(-c2ccc(OC(F)(F)F)cc2)cc1 [Compound 124] | 22% | 49% | –
3 | Cc1cccc(CN(C(=O)C(=O)O)c2ccc(-c3ccc(OC(F)(F)F)cc3)cc2)c1 [Compound 125] | 15% | 31% | –
4 | COc1ccc(-c2ccc(N(Cc3ccc(C(C)(C)C)cc3)C(=O)C(=O)O)cc2)cc1 [Compound 126] | 16% | 43% | –
5 | CC(C)(C)c1ccc(CN(C(=O)C(=O)O)c2ccc(-c3ccc(F)cc3)cc2)cc1 [Compound 127] | 21% | 43% | –
6 | CC(C)(C)c1ccc(N(C(=O)C(=O)O)c2ccc(-c3ccc(OC(F)(F)F)cc3)cc2)cc1 [Compound 128] | 58% | 89% | –
7 | COc1ccc(CN(C(=O)C(=O)O)c2ccc(-c3ccc(OC(F)(F)F)cc3)cc2)cc1 [Compound 131] | – | 10% | 34%
8 | CC(C)(C)c1ccc(CN(C(=O)C(=O)O)c2ccc(Oc3ccc(OC(F)(F)F)cc3)cc2)cc1 [Compound 132] | – | 32% | 82%
9 | CC(C)(C)c1ccc(CN(C(=O)C(=O)O)c2ccc(-c3ccc(OC(F)(F)F)cc3)cc2)cc1 [Compound 133] | 80% | 92% | –
10 | CSc1ccc(-c2ccc(N(Cc3ccc(C(C)(C)C)cc3)C(=O)C(=O)O)cc2)cc1 [Compound 134] | – | 14% | 75%
11 | CC(C)(C)c1ccc(CN(C(=O)C(=O)O)c2ccc(-c3ccc(Cl)cc3)cc2)cc1 [Compound 135] | – | 6% | 67%
12 | Cc1ccc(-c2ccc(OC(F)(F)F)cc2)cc1N(Cc1ccc(C(C)(C)C)cc1)C(=O)C(=O)O [Compound 136] | 16% | 47% | 79%
13 | Cc1ccc(-c2ccccc2)cc1N(Cc1ccc(C(C)(C)C)cc1)C(=O)C(=O)O [Compound 137] | – | 5% | 61%
14 | Cc1ccc(-c2cccc([N+](=O)[O-])c2)cc1N(Cc1ccc(C(C)(C)C)cc1)C(=O)C(=O)O [Compound 138] | – | 4% | 61%
15 | CC(C)(C)c1ccc(CN(C(=O)C(=O)O)c2cc(-c3ccccc3)cc(C(F)(F)F)c2)cc1 [Compound 140] | 6% | 31% | 77%
16 | Cc1ccc(-c2ccc(N(Cc3ccc(C(C)(C)C)cc3)C(=O)C(=O)O)cc2)cc1 [Compound 141] | – | 5% | 52%
17 | CC(C)(C)c1ccc(CN(C(=O)C(=O)O)c2ccc(-c3cccc([N+](=O)[O-])c3)cc2)cc1 [Compound 142] | – | 3% | 33%
18 | Cc1ccc(CN(C(=O)C(=O)O)c2ccc(-c3ccc(OC(F)(F)F)cc3)cc2)cc1 [Compound 143] | – | 1% | 22%
19 | O=C(O)C(=O)N(Cc1ccc(Cl)cc1Cl)c1ccc(-c2ccc(OC(F)(F)F)cc2)cc1 [Compound 144] | 3% | 22% | 76%

Row | Compound | inhibition at 5 µM | inhibition at 10 µM | inhibition at 25 µM
20 | CC(C)(C)c1ccc(CN(C(=O)C(=O)O)c2ccc(-c3ccc(C(F)(F)F)cc3)cc2)cc1 [Compound 145] | 7% | 35% | 74%
21 | Cc1cc(-c2ccc(OC(F)(F)F)cc2)ccc1N(Cc1ccc(C(C)(C)C)cc1)C(=O)C(=O)O [Compound 146] | 33% | 73% | 90%
22 | CC(C)(C)c1ccc(CN(C(=O)C(=O)O)c2ccccc2-c2ccc(OC(F)(F)F)cc2)cc1 [Compound 148] | 17% | 55% | 98%
23 | CC(C)(C)c1ccc(CN(C(=O)C(=O)O)c2ccc(-c3ccc(C#N)cc3)cc2)cc1 [Compound 149] | – | 3% | 34%
24 | CC(C)(C)c1ccc(CN(C(=O)C(=O)O)c2ccc(-c3ccc(OC(F)(F)F)cc3)cc2C(F)(F)F)cc1 [Compound 150] | 33% | 75% | 87%
25 | CC(C)(C)c1ccc(CN(C(=O)C(=O)O)c2ccc(-c3ccc(OC(F)(F)F)cc3)cc2OC(F)(F)F)cc1 [Compound 151] | 35% | 80% | 90%
26 | Cc1cc(-c2ccc(OC(F)(F)F)cc2)cc(C)c1N(Cc1ccc(C(C)(C)C)cc1)C(=O)C(=O)O [Compound 152] | 41% | 88% | 93%
27 | CC(C)(C)c1ccc(CN(C(=O)C(=O)O)c2ccccc2Oc2ccc(OC(F)(F)F)cc2)cc1 [Compound 153] | 20% | 54% | 93%
28 | O=C(O)C(=O)N(Cc1ccccc1)c1ccc(Oc2ccc(OC(F)(F)F)cc2)cc1 [Compound 154] | – | 3% | 20%
29 | O=C(O)C(=O)N(Cc1ccc(F)cc1)c1ccc(-c2ccc(OC(F)(F)F)cc2)cc1 [Compound 155] | 7% | 15% | 38%
30 | CC(C)(C)c1ccc(-c2ccc(N(Cc3ccccc3)C(=O)C(=O)O)cc2)cc1 [Compound 156] | 10% | 25% | 67%
31 | CC(C)(C)c1ccc(N(C(=O)C(=O)O)c2ccccc2-c2ccc(OC(F)(F)F)cc2)cc1 [Compound 157] | 25% | 56% | 96%
32 | CC(C)(C)c1ccc(N(C(=O)C(=O)O)c2cccc(-c3ccc(OC(F)(F)F)cc3)c2)cc1 [Compound 158] | 26% | 61% | > 99%
33 | O=C(O)C(=O)N(Cc1ccc(OC(F)(F)F)cc1)c1ccc(-c2ccc(OC(F)(F)F)cc2)cc1 [Compound 159] | 21% | 45% | 92%
34 | CSc1ccc(CN(C(=O)C(=O)O)c2ccc(-c3ccc(OC(F)(F)F)cc3)cc2)cc1 [Compound 160] | 14% | 26% | 68%
35 | O=C(O)C(=O)N(Cc1ccc(-c2ccccc2)cc1)c1ccc(-c2ccc(OC(F)(F)F)cc2)cc1 [Compound 161] | 27% | 62% | > 99%
36 | CC(C)(C)c1ccc(-c2ccc(N(Cc3ccc(OC(F)(F)F)cc3)C(=O)C(=O)O)cc2)cc1 [Compound 162] | 30% | 74% | > 99%
37 | CC(C)(C)c1ccc(CN(C(=O)C(=O)O)c2ccc(-c3ccc(C(C)(C)C)cc3)cc2)cc1 [Compound 163] | 37% | 84% | > 99%
38 | CCCCc1ccc(-c2ccc(N(Cc3ccc(C(C)(C)C)cc3)C(=O)C(=O)O)cc2)cc1 [Compound 164] | 40% | 79% | 96%

Source: patent EP2272817A1, “PAI-1 INHIBITOR” (Institute of Medicinal Molecular Design, Inc., priority 2008, dated 2009)
